Results reported in patent publication US12233041B2, “Disulfonate stilbenes for use in the treatment of proliferative diseases” (UNIVERSITÉ DE NANTES, priority 2018, dated 2025).
Entries after “also recorded” stand apart in the source; their conditions may differ.

Experiments:
Rad51 = target: T1, Rad51 (Homo sapiens, UniProt Q06609); assay: RAD51 nucleofilament formation by Bio-Layer Interferometry (BLItz), binding of Rad51 to ssDNA
T1 sequence (Q06609 1-339): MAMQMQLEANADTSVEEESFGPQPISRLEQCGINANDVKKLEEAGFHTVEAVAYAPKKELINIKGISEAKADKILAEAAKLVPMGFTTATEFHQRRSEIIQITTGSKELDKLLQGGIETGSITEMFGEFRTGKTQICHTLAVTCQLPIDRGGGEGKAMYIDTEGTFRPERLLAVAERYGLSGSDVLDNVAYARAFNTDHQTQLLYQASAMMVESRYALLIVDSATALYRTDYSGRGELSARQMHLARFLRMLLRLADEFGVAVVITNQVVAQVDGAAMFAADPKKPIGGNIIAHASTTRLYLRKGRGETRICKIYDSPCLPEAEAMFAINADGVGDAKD
Procedure: The binding of Rad51 to ssDNA was monitored and quantified by Bio-Layer Interferometry technology using the BLItz platform (FortéBio Inc.). The procedure includes four steps: (1) the baseline in buffer A containing 1×PBS, 10 mM MgCl2 and 0.0075% Tween20 was recorded for 20 s; (2) loading and binding of Rad51 were measured for 40 s using 1.5 μM Rad51 and 1 mM ATP in buffer A; (3) the dissociation of Rad51 from ssDNA was recorded for 20 s in buffer A; (4) the ssDNA biosensor was regenerated using baths of 50 mM NaOH. Except for the step 2, which used 4 μL drop of the protein sample, the steps 1, 3 and 4 used 250 μL solutions in 0.5 mL tube. The measurement parameters were as follows: room temperature measurement and stirring speed of 2200 rpm. To investigate the effect of CSB and analogs to the ssDNA binding of Rad51, the molecule was included in the protein sample of the step 2 at the indicated concentrations and incubated for 5 min before loading on the biosensor. (Normand, A. et al., “Identification and characterization of human Rad51 inhibitors by screening of an existing drug library.”, Biochemical Pharmacology, October 2014, Vol. 91, No. 3, pp. 293-300).
A test based on interferometry (Blitz®, Fortebio) allows the measure of the association kinetics of RAD51 protein with a single-stranded DNA immobilized on a biosensor support in the presence or absence of an inhibitor. The effect of compounds B-1, B-2, B-3, BPQ and X-4 on RAD51 nucleofilament formation has been evaluated in presence of increasing doses of inhibitors. The results are presented on FIG. 2.

[1] = tested on: RAD51 foci in DU-145 cells; assay: Rad51 foci quantification by immunofluorescence; format: cell-based; settings: DU-145, B-2 20 μM + cisplatin 30 μM; FIG. 8
Procedure: DU-145 cells were grown on coverslips (Life Technologies) at a density of 5×10^3 cells per well in medium (RPMI) supplemented with 10% fetal bovine serum (Gibco-Invitrogen). Cells were treated with Cisplatin at 30 μM for 1 hour in presence or in absence of RAD51 inhibitor B-2 at 20 μM, and then the medium was replaced with molecule-free medium. After 18 h, cells were washed once in PBS for 5 min and fixed with ethanol absolute for 25 min.
The fixed cells were incubated for 1 h in the PBS buffer containing 1:1000 diluted anti-RAD51 antibody at room temperature. After three 5-min washes in PBS, slides were incubated with PBS solution containing the secondary antibody conjugated with AlexaFluor 555 ([…]) for 45 min in dark room. […] The images were recorded with NIS Element software (Version 3.6, Nikon, Tokyo, Japan). The quantification of RAD51 foci was processed with a program derived from Fiji-ImageJ software (NIH, Bethesda, Maryland, USA). […]
The treatment with Cisplatin alone induces a high level of RAD51 foci, whereas this level is decreased when the treatment is associated with B-2 20 μM. After the quantification of the number of RAD51 foci per cell, the number of cells containing more than 20 RAD51 foci was determined.

[2] = tested on: recombinant fibroblast line RG37; assay: Intracellular homologous recombination (HR), GFP reconstitution after I-SceI cleavage, flow cytometry; format: cell-based; settings: RG37 cells, 72 h after pCMV-HA-I-SceI transfection; FIG. 3
Procedure: After transfection with the pCMV-HA-I-SceI plasmid and incubation for 72 h, the cells were collected in PBS and 50 mM EDTA, pelleted and fixed with 2% paraformaledhyde for 20 min. The percentage of GFP-expressing cells was scored by FACS analysis using Cytoflex (Beckman Coulter). At least 3 independent experiments were performed, and HA-I-SceI expression was verified each time by Western blot with rabbit anti-HA antibody (Abcam).
The recombinant fibroblast line RG37 is used to confirm in vitro results (Examples 2-5) in the cellular context. This cellar line comprises two non-functional GFP cassettes, one of which has a unique cleavage site inducible by transfection of a restriction enzyme. After cleavage, which is equivalent to a double-strand break (DSB) of the DNA, the homologous recombination (HR) leads to the reconstitution of a complete GFP cassette thus making the cell fluorescent. The rate of intracellular HR is then determined by measurement in flow cytometry so as to measure the level of HR in cells after treatment with compounds C-3, B-2 and X-2.

N#Cc1ccc(/C=C/c2ccc(C#N)cc2S(=O)(=O)[O-])c(S(=O)(=O)[O-])c1.[Na+].[Na+] [B-2, Sodium (E)-6,6′-(ethene-1,2-diyl)bis(3-cyanobenzenesulfonate)]
activity on nucleofilament formation compared with reference molecule BPQ (Rad51; FIG. 2): comparable to or even better | effect on nucleofilament formation compared with DIDS (Rad51; high dose (50 μM)): same effect | formation of RAD51 protein nucleofilament (relative binding of RAD51 protein with single-stranded DNA) (Rad51; increasing doses of inhibitors, FIG. 2): inhibit; also recorded: very strongly diminished | activity on nucleofilament formation compared with reference molecule DIDS (Rad51; low dose (5 μM)): comparable | decrease of level of RAD51 foci mediated by cisplatin (cells containing more than 20 RAD51 foci) [1]: about 20% | intracellular HR inhibition [2]: significant inhibitory effect
